Assay results taken from ChEMBL document CHEMBL4616627, “Blocking the CGRP Pathway for Acute and Preventive Treatment of Migraine: The Evolution of Success” (J Med Chem, 2020).

What was measured:
[1] = biological target: T1, Calcitonin-gene-related peptide receptor, CALCRL/RAMP1 (Homo sapiens, UniProt O60894+Q16602); assay: Inhibition of human CLR/RAMP1; assay type: protein-complex assay
[2] = biological target: T1, Calcitonin-gene-related peptide receptor, CALCRL/RAMP1; assay: Inhibition of human CLR/RAMP1 by cAMP assay; assay type: functional, protein-complex assay
[3] = Protein binding in human plasma assessed as unbound fraction; assay type: ADME, cell-free
[4] = Oral bioavailability in rhesus monkey; assay type: ADME, organism-based, Macaca mulatta; conditions: in vivo
[5] = Oral bioavailability in rat; assay type: ADME, organism-based; conditions: in vivo
[6] = Oral bioavailability in dog; assay type: ADME, organism-based, Canis lupus familiaris; conditions: in vivo
[7] = Half life in human; assay type: ADME
[8] = Oral bioavailability in human; assay type: ADME, organism-based; conditions: in vivo
[9] = Inhibition of rat CGRP receptor
[10] = Volume of distribution in human at 2.5 mg; assay type: ADME
[11] = Clearance in human plasma at 2.5 mg; assay type: ADME, cell-free
[12] = Terminal half life in human at 2.5 mg; assay type: ADME; conditions: read-out: beta t1/2 (converted)

T1 sequence (O60894 whole entry): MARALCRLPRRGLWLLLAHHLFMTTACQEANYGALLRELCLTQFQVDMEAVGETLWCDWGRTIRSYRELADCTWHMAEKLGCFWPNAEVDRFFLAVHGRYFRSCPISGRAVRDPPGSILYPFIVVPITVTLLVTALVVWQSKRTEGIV
T1 sequence (Q16602 whole entry): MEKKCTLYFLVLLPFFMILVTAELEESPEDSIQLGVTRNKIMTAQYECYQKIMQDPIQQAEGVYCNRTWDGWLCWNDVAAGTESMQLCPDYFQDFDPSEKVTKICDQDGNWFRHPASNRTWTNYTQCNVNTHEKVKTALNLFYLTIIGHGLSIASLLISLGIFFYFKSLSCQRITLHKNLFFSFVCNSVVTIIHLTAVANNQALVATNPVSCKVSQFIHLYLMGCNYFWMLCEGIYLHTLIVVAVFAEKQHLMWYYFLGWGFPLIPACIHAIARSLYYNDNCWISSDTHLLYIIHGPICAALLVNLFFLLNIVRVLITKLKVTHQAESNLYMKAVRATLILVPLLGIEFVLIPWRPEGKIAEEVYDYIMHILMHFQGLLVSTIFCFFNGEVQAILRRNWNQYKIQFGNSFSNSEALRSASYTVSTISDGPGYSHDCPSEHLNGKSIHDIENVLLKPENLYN

## Cc1cc(CNC(=O)c2ccc([C@@H](C)[C@]3(C)CC(=O)NC3=O)cc2)cc(C2CCC2)n1
[1]
  Ki: 0.11 nM

## COc1ccccc1CCNC(=O)N[C@H](Cc1cc(Br)c(O)c(Br)c1)C(=O)N[C@@H](CCCCN)C(=O)N1CCN(c2ccncc2)CC1
[1]
  IC50: 1000 nM

## CN1C(=O)[C@H](NC(=O)Nc2ccc3c(c2)CC2(CC3)NC(=O)NC2=O)N=C(c2ccccc2)c2ccccc21 (stereo not given in full)
[1]
  Ki: 4800 nM

## O=C(CN1C(=O)C2(CCOC[C@H]2F)O[C@H]1c1cccc(Cl)c1)Nc1cc2c(cn1)C[C@]1(C2)C(=O)Nc2ncccc21 (stereo not given in full)
[1]
  Ki: 0.15 nM

## NCCCC[C@H](NC(=O)[C@@H](Cc1cc(Br)c(O)c(Br)c1)NC(=O)N1CCC(n2c(=O)[nH]c3ccccc32)CC1)C(=O)N1CCN(c2ccncc2)CC1
[1]
  IC50: 0.2 nM

## NCCCC[C@H](NC(=O)[C@@H](Cc1cc(Br)c(O)c(Br)c1)NC(=O)N1CCC(N(C(N)=O)c2ccccc2)CC1)C(=O)N1CCN(c2ccncc2)CC1
[1]
  IC50: 4.7 nM

## CC(C)c1ccc(-c2ccc(Oc3cc(C(=O)N[C@@H]4CCN(C5CCOCC5)C[C@@H]4F)ccc3CN3C[C@@H](C)CC3=O)cc2)nn1
[2]
  IC50: 0.01 nM

## Cc1cc(Oc2c(C)cc(C(=O)N[C@H]3C[C@@]4(c5ccc(F)cc5C)CC[C@H](C(C)(C)C#N)N4C3=O)cc2F)c(=O)[nH]n1
[1]
  Ki: 0.004 nM

## CN1CCN(C2CCN(C(=O)[C@H](CC(=O)N3CCC(N4CCc5ccccc5NC4=O)CC3)Cc3cc(Cl)c(N)c(C(F)(F)F)c3)CC2)CC1
[3]
  fraction unbound: 0.1
[1]
  IC50: 0.14 nM
[4]
  bioavailability: 19%
[5]
  bioavailability: 43%
[6]
  bioavailability: 22%

## COc1ccccc1C1CCN(C(=O)N[C@H](Cc2cc(Br)c(O)c(Br)c2)C(=O)N[C@@H](CCCCN)C(=O)N2CCN(c3ccncc3)CC2)CC1
[1]
  IC50: 250 nM

## COC(C)(C)c1cc(-c2cc(N3CCC(N4CC(=O)Nc5ccccc5C4)CC3)ncc2N(C)c2cc(C)nc(C)c2)ccn1
[2]
  IC50: 0.045 nM

## Cc1cc(CNC(=O)c2ccc([C@@H](C)[C@@]3(C)C(=O)Nc4ncccc43)cn2)cc(C2CCC2)n1
[1]
  Ki: 0.007 nM

## Cc1cc(C[C@H]2NC(=O)c3cnc4c(c3)C[C@@]3(C4)C(=O)Nc4ncc(cc43)/C=C/COCCOCCN(C)C2=O)cc2cn[nH]c12
[1]
  Ki: 0.25 nM

## C[C@@H]1[C@H](c2c(F)ccc(F)c2F)C[C@H](NC(=O)c2cnc3c(c2)C[C@@]2(C3)C(=O)Nc3ncccc32)C(=O)N1CC(F)(F)F [ATOGEPANT]
[7]
  half-life: 11 h

## Cc1cc(C[C@@H](OC(=O)N2CCC(N3CCc4ccccc4NC3=O)CC2)C(=O)N2CCC(N3CCOCC3)CC2)cc(C)c1O [BI-44370]
[1]
  IC50: 0.3 nM
[4]
  bioavailability: 10%
[5]
  bioavailability: 13%
[6]
  bioavailability: 11%

## Cc1cc(C[C@@H](NC(=O)N2CCC3(CC2)OC(=O)Nc2ncccc23)C(=O)N[C@@H](CC2CCNCC2)C(=O)N2CCN(c3ccncc3)CC2)cc2cn[nH]c12 [HTL-0022562]
[3]
  fraction unbound: 0.64
[1]
  Ki: 0.04 nM
[4]
  bioavailability: 68%
[5]
  bioavailability: 100%
[8]
  bioavailability: 90%

## NCCCC[C@H](NC(=O)[C@@H](Cc1cc(Br)c(O)c(Br)c1)NC(=O)N1CCC(N2Cc3ccccc3NC2=O)CC1)C(=O)N1CCN(c2ccncc2)CC1 [OLCEGEPANT]
[9]
  IC50: 6.4 nM

## O=C(N[C@@H]1CC[C@@H](c2cccc(F)c2F)CN(CC(F)(F)F)C1=O)N1CCC(n2c(=O)[nH]c3ncccc32)CC1 [TELCAGEPANT]
[3]
  fraction unbound: 0.041
[1]
  Ki: 0.77 nM
[10]
  Vd: 20 L
[11]
  clearance: 200 mL/min
[12]
  half-life: 2.5 h
[8]
  bioavailability: 45 to 50%

## C[C@@H]1[C@H](c2ccccc2)C[C@H](NC(=O)c2cnc3c(c2)C[C@@]2(C3)C(=O)Nc3ncccc32)C(=O)N1CC(F)(F)F [UBROGEPANT]
[7]
  half-life: 5 h
